# Laboratory results taken from ChEMBL document CHEMBL2434831, “Imidazo[4,5-b]pyridine inhibitors of B-Raf kinase” (Bioorg Med Chem Lett, 2013).
# Columns and labels:
# [1] = system: Serine/threonine-protein kinase B-raf (Homo sapiens), P15056 [V600E]; assay: Ratio of IC50 for B-Raf V600E mutant in human Malme-3M cells to IC50 for full length B-Raf V600E mutant (unknown origin); format: cell-based
# [2] = molecular target: T1, Serine/threonine-protein kinase B-raf (Homo sapiens, UniProt P15056, V600E); assay: Inhibition of B-Raf V600E mutant in human Malme-3M cells assessed as basal ERK phosphorylation; format: cell-based
# [3] = molecular target: T1, Serine/threonine-protein kinase B-raf; assay: Inhibition of full length B-Raf V600E mutant (unknown origin)
# [4] = Permeability from apical to basolateral side in human Caco2 cells; format: ADME, cell-based; details: Caco-2, read-out: permeability
# [5] = Inhibition of cytochrome P450 (unknown origin); format: ADME; details: human
# T1 sequence (P15056 2-766 V600E limits assumed): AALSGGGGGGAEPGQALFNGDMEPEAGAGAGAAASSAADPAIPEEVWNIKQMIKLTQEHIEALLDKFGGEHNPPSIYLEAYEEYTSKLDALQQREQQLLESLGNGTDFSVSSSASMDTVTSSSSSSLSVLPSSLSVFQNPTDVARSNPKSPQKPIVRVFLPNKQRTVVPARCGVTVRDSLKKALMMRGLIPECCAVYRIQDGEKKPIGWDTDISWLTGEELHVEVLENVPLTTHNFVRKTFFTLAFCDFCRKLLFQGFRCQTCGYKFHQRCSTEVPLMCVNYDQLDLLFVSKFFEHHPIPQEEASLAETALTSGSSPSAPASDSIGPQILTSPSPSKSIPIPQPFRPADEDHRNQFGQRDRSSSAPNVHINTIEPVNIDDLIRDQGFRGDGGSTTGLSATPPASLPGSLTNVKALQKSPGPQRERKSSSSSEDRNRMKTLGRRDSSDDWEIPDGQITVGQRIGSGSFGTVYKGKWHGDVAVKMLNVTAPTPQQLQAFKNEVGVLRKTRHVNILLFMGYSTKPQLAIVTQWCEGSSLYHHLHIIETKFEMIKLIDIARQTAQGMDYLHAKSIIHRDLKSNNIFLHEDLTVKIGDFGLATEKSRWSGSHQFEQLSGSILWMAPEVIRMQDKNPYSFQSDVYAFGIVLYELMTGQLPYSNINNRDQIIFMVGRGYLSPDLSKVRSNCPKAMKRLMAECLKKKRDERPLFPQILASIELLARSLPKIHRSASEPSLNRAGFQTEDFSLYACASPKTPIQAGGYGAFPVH
# Sequence of Serine/threonine-protein kinase B-raf (Homo sapiens), P15056 [V600E] (P15056 whole entry V600E): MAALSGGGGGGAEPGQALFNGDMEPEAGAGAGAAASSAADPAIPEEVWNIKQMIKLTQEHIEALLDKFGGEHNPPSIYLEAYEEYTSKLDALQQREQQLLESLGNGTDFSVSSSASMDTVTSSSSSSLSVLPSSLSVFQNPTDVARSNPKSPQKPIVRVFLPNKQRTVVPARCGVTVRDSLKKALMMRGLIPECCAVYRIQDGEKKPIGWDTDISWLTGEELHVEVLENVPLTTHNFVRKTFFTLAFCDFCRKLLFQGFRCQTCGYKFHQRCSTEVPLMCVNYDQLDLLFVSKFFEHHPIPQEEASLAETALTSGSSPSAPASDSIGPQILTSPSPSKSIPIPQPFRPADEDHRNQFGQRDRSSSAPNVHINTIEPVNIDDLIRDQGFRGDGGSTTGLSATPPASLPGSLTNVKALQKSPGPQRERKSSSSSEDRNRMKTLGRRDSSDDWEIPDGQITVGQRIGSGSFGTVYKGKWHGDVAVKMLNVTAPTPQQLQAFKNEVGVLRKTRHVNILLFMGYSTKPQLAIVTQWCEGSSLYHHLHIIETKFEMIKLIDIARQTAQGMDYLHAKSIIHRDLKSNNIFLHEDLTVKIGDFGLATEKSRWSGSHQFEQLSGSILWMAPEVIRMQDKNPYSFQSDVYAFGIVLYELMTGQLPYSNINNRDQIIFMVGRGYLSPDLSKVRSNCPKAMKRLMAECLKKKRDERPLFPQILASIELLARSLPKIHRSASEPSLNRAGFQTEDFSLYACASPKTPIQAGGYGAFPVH
Ratio IC50 [1],IC50 [2] [nM],IC50 [3] [nM],Papp A→B [4] [×10⁻⁶ cm/s],inhibition (INH) [5],Compound
34,86,2.5,–,–,CCCS(=O)(=O)Nc1ccc(F)c(C(=O)Nc2cnc3[nH]c(-c4ccc(OC(F)(F)F)cc4)nc3c2)c1F
112,113,1,–,–,CCCS(=O)(=O)Nc1ccc(F)c(C(=O)Nc2cnc3[nH]c(-c4cccc(C(F)(F)F)c4)nc3c2)c1F
18,20,1.1,–,–,CCCS(=O)(=O)Nc1ccc(F)c(C(=O)Nc2cnc3[nH]c(-c4ccc(F)cc4)cc3c2)c1F
–,–,–,11.4,–,CCCS(=O)(=O)Nc1ccc(F)c(C(=O)Nc2cnc3ccnn3c2)c1F
–,132,1.6,–,–,CCCS(=O)(=O)Nc1ccc(F)c(C(=O)Nc2cnc3[nH]c(-c4ccccc4)nc3c2)c1F
62,68,1.1,–,–,CCCS(=O)(=O)Nc1ccc(F)c(C(=O)Nc2cnc3[nH]c(-c4cccc(Cl)c4)nc3c2)c1F
4.9,–,–,–,–,CCCS(=O)(=O)Nc1ccc(F)c(C(=O)Nc2cnc3cc(-c4ccc(F)cc4)nn3c2)c1F
11,90,8.2,–,–,CCCS(=O)(=O)Nc1ccc(F)c(C(=O)Nc2cnc3cc(-c4ccc(Cl)cc4)nn3c2)c1F
219,271,1.2,–,–,CCCS(=O)(=O)Nc1ccc(F)c(C(=O)Nc2cnc3[nH]c(-c4cccc(OC)c4)nc3c2)c1F
38,49,1.3,2.6,–,CCCS(=O)(=O)Nc1ccc(F)c(C(=O)Nc2cnc3[nH]c(-c4ccc(C)cc4)nc3c2)c1F
107,3330,31,–,–,CCCS(=O)(=O)Nc1ccc(F)c(C(=O)Nc2cnc3[nH]c(C4CCC4)nc3c2)c1F
88,239,2.7,–,–,CCCS(=O)(=O)Nc1ccc(F)c(C(=O)Nc2cnc3[nH]c(-c4ccc(C#N)cc4)nc3c2)c1F
28,61,2.2,1.3,–,CCCS(=O)(=O)Nc1ccc(F)c(C(=O)Nc2cnc3[nH]c(-c4ccc(Br)cc4)nc3c2)c1F
226,172,0.76,–,–,CCCS(=O)(=O)Nc1ccc(F)c(C(=O)Nc2cnc3[nH]c(-c4cccc(Br)c4)nc3c2)c1F
527,728,1.4,–,–,CCCS(=O)(=O)Nc1ccc(F)c(C(=O)Nc2cnc3[nH]c(-c4ccc(S(C)(=O)=O)cc4)nc3c2)c1F
596,1910,3.2,–,–,CCCS(=O)(=O)Nc1ccc(F)c(C(=O)Nc2cnc3[nH]c(-c4ccncc4)nc3c2)c1F
54,81,1.5,2,Not Active,CCCS(=O)(=O)Nc1ccc(F)c(C(=O)Nc2cnc3[nH]c(-c4ccc(Cl)c(Cl)c4)nc3c2)c1F
71,157,2.2,–,–,CCCS(=O)(=O)Nc1ccc(F)c(C(=O)Nc2cnc3[nH]c(-c4ccc(Cl)cc4)nc3c2)c1F

Ratio IC50 [1],IC50 [2] [nM],IC50 [3] [nM],Papp A→B [4] [×10⁻⁶ cm/s],inhibition (INH) [5],Compound
> 93,> 10000,107,–,–,CCCS(=O)(=O)Nc1ccc(F)c(C(=O)Nc2cnc3[nH]c(C4CCNCC4)nc3c2)c1F
8.4,20,2.4,–,–,CCCS(=O)(=O)Nc1ccc(F)c(C(=O)Nc2cnc3[nH]c(-c4ccc(Cl)cc4)cc3c2)c1F
–,–,–,15.6,–,CCCS(=O)(=O)Nc1ccc(F)c(C(=O)Nc2cnc3cc(-c4ccccc4)nn3c2)c1F
23,1560,69,–,–,CCCS(=O)(=O)Nc1ccc(F)c(C(=O)Nc2cnc3[nH]c(C(C)(C)C)nc3c2)c1F
35,948,27,–,–,CCCS(=O)(=O)Nc1ccc(F)c(C(=O)Nc2cnc3[nH]c(-c4ccccc4Br)nc3c2)c1F
21,557,27,–,–,CCCS(=O)(=O)Nc1ccc(F)c(C(=O)Nc2cnc3[nH]c(-c4ccccc4Cl)nc3c2)c1F
29,1730,60,–,–,CCCS(=O)(=O)Nc1ccc(F)c(C(=O)Nc2cnc3[nH]c(C(C)C)nc3c2)c1F
> 60,> 10000,167,–,–,CCCS(=O)(=O)Nc1ccc(F)c(C(=O)Nc2cnc3[nH]c(C4CCCNC4)nc3c2)c1F (stereo not drawn)
43,1710,40,–,–,CCCS(=O)(=O)Nc1ccc(F)c(C(=O)Nc2cnc3[nH]c(C)nc3c2)c1F
62,89,1.4,1,–,CCCS(=O)(=O)Nc1ccc(F)c(C(=O)Nc2cnc3[nH]c(-c4ccc(C(F)(F)F)cc4)nc3c2)c1F
32,32,1,5.6,–,CCCS(=O)(=O)Nc1ccc(F)c(C(=O)Nc2cnc3[nH]c(-c4ccccc4)cc3c2)c1F
97,298,3.1,–,–,CCCS(=O)(=O)Nc1ccc(F)c(C(=O)Nc2cnc3[nH]c(-c4cccc(F)c4)nc3c2)c1F
125,137,1.1,–,–,CCCS(=O)(=O)Nc1ccc(F)c(C(=O)Nc2cnc3[nH]c(-c4ccc(OC)cc4)nc3c2)c1F
240,1050,4.4,–,–,CCCS(=O)(=O)Nc1ccc(F)c(C(=O)Nc2cnc3[nH]c(-c4ccc(F)cc4)nc3c2)c1F
30,1770,59,–,–,CCCS(=O)(=O)Nc1ccc(F)c(C(=O)Nc2cnc3[nH]c(CC)nc3c2)c1F
21,167,8,–,–,CCCS(=O)(=O)Nc1ccc(F)c(C(=O)Nc2cnc3[nH]c(-c4ccccc4F)nc3c2)c1F
57,194,3.4,–,–,CCCS(=O)(=O)Nc1ccc(F)c(C(=O)Nc2cnc3[nH]c(-c4ccc(F)c(F)c4)nc3c2)c1F
375,1130,3,–,–,CCCS(=O)(=O)Nc1ccc(F)c(C(=O)Nc2cnc3[nH]c(-c4cccnc4)nc3c2)c1F

Compound,Ratio IC50 [1],IC50 [2] [nM],IC50 [3] [nM],Papp A→B [4] [×10⁻⁶ cm/s],inhibition (INH) [5]
CCCS(=O)(=O)Nc1ccc(F)c(C(=O)Nc2cnc3[nH]cnc3c2)c1F,39,–,–,0.6,–
CCCS(=O)(=O)Nc1ccc(F)c(C(=O)Nc2cnc3[nH]ccc3c2)c1F,–,–,42,7.3,–
CCCS(=O)(=O)Nc1ccc(F)c(C(=O)Nc2cnc3[nH]ncc3c2)c1F,–,–,18,1.3,–
